Source: patent publication US7683211B2, “Jasmonate derivative compounds pharmaceutical compounds and methods of use thereof” (Ramot at Tel-Aviv University Ltd., priority 2003, dated 2010)
Where two headings read alike, the source gives them in different places.

Experiments:
[1] = test system: Molt-4 lymphoblastic leukemia cells; test: CellTiter 96 MTS cytotoxicity assay, Molt-4 leukemia cells; type: cell-based, human; conditions: for IC50: Homo sapiens, 24 h, Molt-4 at 2.5×10^4/ml
Method: (§1) Measurement of reduction in the number of living cells was determined by, the CellTiter 96 Aqueous Non-Radioactive Cell Proliferation Assay (Promega, Madison Wis.). Upon completion of a given experiment, MTS (a tetrazolium compound) at 333 μg/ml+phenazine methosulfate (at 25 μM) was added to each well of the 96-well plate for 1 hour at 37° C. This allowed for development of a color reaction in which dehydrogenases reduce the MTS in metabolically active cells. Since the cells were not washed before the addition of MTS, there were no potentially loosely adherent or non-adherent cells that could have been problematic. Soluble MTS formazan product was measured at a wavelength of 490 nm using a CERES 900 HDI ELISA reader (Bio-Tek Instruments, Inc, Highland Park, Vt.), Optical density is directly proportional to the number of living cells in culture. Cytotoxicity (%) was calculated in the following way: [(OD of control cells−OD of drug-treated cells)/OD of control cells]×100.
Molt-4 lymphoblastic leukemia cells (at 1.5×10^4/well), 3LL lung carcinoma cells (at 4×10^3/well), B16 melanoma cells (at 4×10^3/well), or HCT116 colon carcinoma cells (at 4×10^3/well) were seeded in 96-well plates and methyl jasmonate (MJ) or MJDB at 0.5 mM were added for 1 day. Optical density representing viable cells was determined by the CellTiter 96 Aqueous Non-Radioactive Cell Proliferation Assay (described above). Cytotoxicity was calculated as the % of control untreated cultures, mean±SD. n=3.
(§2) The optical density that represented viable cells was determined by the CellTiter 96 Aqueous Non-Radioactive Cell Proliferation Assay (Promega, Madison, Wis.), as described above. Cytotoxicity was calculated as % of control untreated cultures, mean±SE. n=3.
Biological assays were performed with a 1:1 mixture of the aforementioned tetra bromo isomers. More specifically, Molt-4 leukemic cells (at 2.5×10^4/ml) were incubated for one day in 96-well plates in the presence of different concentrations of either MJ or MJTB. The optical density that represented viable cells was determined by the CellTiter 96 Aqueous Non-Radioactive Cell Proliferation Assay (Promega, Madison, Wis.) as described above. Cytotoxicity is calculated as % of control untreated cultures, mean±SE. n=3.
Molt-4 (leukemia) cells (at 2.5×10^4/ml), and normal peripheral blood lymphocytes (PBL, at 2×10^5/ml) were incubated in 96-well plates for one day in the presence of different concentrations of MJTB. PBL were pre-incubated with 0.8 μg/ml phytohaemagglutinin +5 ng/ml TPA for 48 hours, to induce entrance into the cell cycle. These cells proliferate and therefore are similar in that respect to cancer cells, making the comparison more valid. The optical density that represented viable cells was determined by the CellTiter 96 Aqueous Non-Radioactive Cell Proliferation Assay (Promega, Madison, Wis.), as described above.
Molt4 leukemic cells (at 1.5×10^4/ml) were incubated for 1 day in the presence of different concentrations of halogenated derivatives of MJ. Specifically, these derivatives were MJS72f5 (one of R6 and R7 is iodo and the other is methoxy), MJS99 (R6 and R7 are each fluoro) and NJ-63 (one of R6 and R7 is bromo and the other is hydroxyl). The optical density that represented viable cells was determined by the CellTiter 96 Aqueous Non-Radioactive Cell Proliferation Assay (Promega, Madison, Wis.), described above. […] Another derivative.

lymphomas in mice = conditions: from U.S. Pat. No. 6,469,061; cited from earlier work
[2] = test system: 29M4.1 B lymphoma cells expressing mutant p53; test: CellTiter 96 MTS cytotoxicity assay, 29M4.1 B lymphoma clone with mutant p53; type: cell-based; conditions: 1 day, several concentrations, FIG. 3
Method: as §1
(§3) A system of two B lymphoma clones originating from the same cell line (29M4.1) was used. These clones differed solely in the expression of wild type versus mutant p53. […] The optical density that represented viable cells was determined by the CellTiter 96 Aqueous Non-Radioactive Cell Proliferation Assay (Promega, Madison, Wis.).

[3] = test system: ATP levels in Molt-4 leukemia cells; test: ATP determination assay (CellTiter-Glo) in Molt-4 cells; type: cell-based, human; conditions: MJDB at 1 mM (MJ at 3 mM) for 10, 30 or 60 minutes at 37° C., FIG. 4
Method: An ATP determination assay was used to assess the effect of MJDB on ATP levels in cancer cells. More specifically, Molt-4 cells (at 1×10^4/well) were seeded in 96-well opaque-walled plates and MJ at 3 mM or MJDB at 1 mM were added for 10, 30 or 60 minutes at 37° C. Untreated cells incubated in culture medium were used as control. ATT levels were determined by the CellTiter-Glo™ Luminescent Cell Viability Assay; an assay in which cells produce a lumineascence signal that is equivalent to the ATP concentration in the cell. ATP depletion is calculated as % of control untreated cultures, mean±SD. n=3.

[4] = test system: peripheral blood lymphocytes from healthy donors; test: CellTiter 96 MTS cytotoxicity assay, lymphocytes from healthy donors; type: cell-based, human; conditions: 1 day, several concentrations, FIG. 1
Method: as §1
(§4) In order to test the toxicity of MJDB towards human leukemia cells, peripheral blood lymphocytes from chronic lymphocytic leukemia (CLL) patients were harvested. […] The optical density that represented viable cells was determined by the CellTiter 96 Aqueous Non-Radioactive Cell Proliferation Assay (Promega, Madison, Wis.); an assay in which viable cells produce a colored product, as described above. […]

B16 melanoma cells = test: CellTiter 96 MTS cytotoxicity assay, B16 melanoma cells; type: cell-based
Method: as §1
Molt-4 lymphoblastic leukemia cells (at 1.5×10^4/well), 3LL lung carcinoma cells (at 4×10^3/well), B16 melanoma cells (at 4×10^3/well), or HCT116 colon carcinoma cells (at 4×10^3/well) were seeded in 96-well plates and methyl jasmonate (MJ) or MJDB at 0.5 mM were added for 1 day. […] Cytotoxicity was calculated as the % of control untreated cultures, mean±SD. n=3. […]

[5] = test system: 29M4.1 B lymphoma cells expressing wild type p53; test: CellTiter 96 MTS cytotoxicity assay, 29M4.1 B lymphoma clone with wild type p53; type: cell-based; conditions: 1 day, several concentrations, FIG. 3
Method: as §1, §3

3LL lung carcinoma cells = test: CellTiter 96 MTS cytotoxicity assay, 3LL lung carcinoma cells; type: cell-based, mouse; conditions: 0.5 mM, 1 day, FIG. 2, P<0.05
Method: as §1
(§5) Molt-4 lymphoblastic leukemia cells (at 1.5×10^4/well), 3LL lung carcinoma cells (at 4×10^3/well), B16 melanoma cells (at 4×10^3/well), or HCT116 colon carcinoma cells (at 4×10^3/well) were seeded in 96-well plates and methyl jasmonate (MJ) or MJDB at 0.5 mM were added for 1 day. […] Cytotoxicity was calculated as the % of control untreated cultures, mean±SD. n=3.

[6] = test system: peripheral blood lymphocytes from chronic lymphocytic leukemia (CLL) patients; test: CellTiter 96 MTS cytotoxicity assay, CLL patient lymphocytes; type: cell-based, human; conditions: 1 day, several concentrations, FIG. 1; P<0.05 versus healthy donors
Method: as §1, §4

[7] = test system: HCT116 colon carcinoma cells; test: CellTiter 96 MTS cytotoxicity assay, HCT116 colon carcinoma cells; type: cell-based, human; conditions: 0.5 mM, 1 day, FIG. 2, P<0.05
Method: as §1, §5

[8] = test system: D122 (lung carcinoma) cells; test: CellTiter 96 MTS cytotoxicity assay, D122 lung carcinoma cells; type: cell-based, human; conditions: Mus musculus, 24 h; D122 at 5×10^3/ml, one day incubation, MTS readout
Method: as §1, §2

[9] = test system: normal peripheral blood lymphocytes (PBL); test: CellTiter 96 MTS cytotoxicity assay, stimulated normal PBL; type: cell-based; conditions: PBL versus Molt-4
Method: as §1
(§6) Molt-4 (leukemia) cells (at 2.5×10^4/ml), and normal peripheral blood lymphocytes (PBL, at 2×10^5/ml) were incubated in 96-well plates for one day in the presence of different concentrations of MJTB. […] The optical density that represented viable cells was determined by the CellTiter 96 Aqueous Non-Radioactive Cell Proliferation Assay (Promega, Madison, Wis.), as described above.

[10] = as above; type: cell-based; conditions: PBL at 2×10^5/ml, pre-incubated with phytohaemagglutinin + TPA for 48 hours, one day with compound
Method: as §1, §6

[11] = test system: B16MDR (melanoma exhibiting multidrug resistance) cells; test: CellTiter 96 MTS cytotoxicity assay, B16MDR melanoma cells; type: cell-based, human; conditions: Mus musculus, 24 h; B16MDR at 2×10^3/ml, one day incubation, MTS readout; read-out: IC50 (cytotoxicity), B16 MDR
Method: as §1, §2

[12] = one day, MJTB as 1:1 mixture of tetra bromo isomers (Example 6), read-out: IC50 (concentration exhibiting 50% cytotoxicity), Molt-4, MJTB versus MJ

| Compound | IC50 [1, 12] | prevention of development of lymphomas in mice (lymphomas in mice) | cytotoxic effect compared to methyl jasmonate, Molt-4 ([1]; 0.5 mM, 1 day, FIG. 2, P<0.05) | cytotoxicity towards B lymphoma cells expressing mutant p53 [2] | ATP depletion [3] | cytotoxicity towards lymphocytes from healthy donors [4] | cytotoxic effect compared to methyl jasmonate, B16 (B16 melanoma cells; 0.5 mM, 1 day, FIG. 2, P<0.05) | cytotoxicity towards B lymphoma cells expressing wild type p53 [5] | cytotoxic effect compared to methyl jasmonate, 3LL (3LL lung carcinoma cells) | cytotoxicity towards lymphocytes from CLL patients [6] | cytotoxic effect compared to methyl jasmonate, HCT116 [7] | IC50 ([1]; one day incubation, MTS readout (Example 5), read-out: IC50 (cytotoxicity), Molt-4) | IC50 of MJTB smaller than that of MJ (fold) ([1]; Molt-4 cells, one day) | IC50 [8] | IC50 (B16 melanoma cells; 24 h, B16 at 2×10^3/ml, one day incubation, MTS readout) | IC50 for normal peripheral blood lymphocytes relative to leukemic cells [9] | IC50 at 1 day [10] | IC50 [11] |
| --- | --- | --- | --- | --- | --- | --- | --- | --- | --- | --- | --- | --- | --- | --- | --- | --- | --- | --- |
| CC/C=C\CC1C(=O)CCC1CC(=O)OC (stereo not shown) [MJ, methyl jasmonate, reference compound] | 500 µM | effective in preventing development of lymphomas in mice | – | – | – | – | – | – | – | – | – | – | – | – | – | – | – | – |
| CCC(Br)C(Br)CC1C(=O)CCC1CC(=O)OC (stereo not shown) [MJDB, methyl jasmonate di-bromide] | – | – | highly superior in its cytotoxic effect | equally cytotoxic | rapid and strong ATP depletion | cytotoxicity is minimal | highly superior in its cytotoxic effect | equally cytotoxic | highly superior in its cytotoxic effect | highly and selectively cytotoxic | highly superior in its cytotoxic effect | – | – | – | – | – | – | – |
| CCC(Br)C(Br)C[C@@]1(Br)C(=O)[C@@H](Br)CC1CC(=O)OC (stereo partly shown) [MJTB, methyl jasmonate tetra-bromide] | 8 µM | – | – | – | – | – | – | – | – | – | – | 8 µM | about 60 times | 50 µM | 80 µM | larger than that for leukemic cells by more than an order of magnitude | 250 µM | 80 µM |
